Laboratory results taken from PubChem BioAssay AID449762 (Southern Research Specialized Biocontainment Screening …, 2010).
Records with an inconclusive call do not appear.

System: M. tuberculosis H37Rv growth inhibition, 7H9 media
Assay: M. tuberculosis growth inhibition, HTS (AID 449762);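 further: bacterial growth assessed after seven days of incubation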
Conditions: for IC90: measured here: IC90 growth inhibition

SMILES | IC50 [µM] | IC90 [µM]
Cc1cc(=O)oc2c(C)c(OCC(=O)N3CCN(C(=O)C4COc5ccccc5O4)CC3)ccc12 (stereo not given) | 61.5 | 86.1
CN1CCN(c2ccc(S(=O)(=O)N3CCCCC3)cc2NC(=O)/C=C/c2ccc(Cl)c([N+](=O)[O-])c2)CC1 | 30.4 | 38.7
COc1ccc(C(CC(=O)c2ccccc2)S(=O)(=O)c2ccc(C)cc2)cc1 (stereo not given) | 20.2 | 29.4
N#Cc1nccnc1S(=O)(=O)c1cccs1 | 40.6 | 61.1
Cc1nc(-c2ccccc2)sc1C(=O)/C=C/c1ccccc1 | 10.3 | 14.5
c1ccc(-c2ccc(C(c3ccccc3)n3ccnc3)cc2)cc1 (stereo not given) | 19.7 | 31.7
Cc1ccc(OC(=O)CCN2C(=O)c3ccccc3C2=O)cc1C | 28.6 | > 100
CCCSc1nn2c(=O)c3ccccc3nc2s1 | 8.34 | 25.2
COCCN(C(=O)C1CC(=O)N(Cc2ccccc2)C1)c1nc(-c2ccc([N+](=O)[O-])cc2)cs1 (stereo not given) | 24.5 | 25.4
O=C(CSc1nc2ccccc2c(=O)[nH]1)NCc1ccc(Cl)cc1 | 1.09 | 2.7
Cn1nnc(NC(=S)NC(=O)c2ccc(-c3ccc(Br)cc3)o2)n1 | – | > 100
COc1ccc(OC)c(Nc2nc(-c3sc(C)nc3C)cs2)c1 | 51.7 | > 100
NNc1nc2ccc(Cl)cc2s1 | 42.5 | 46.6
COc1ccc(OC)c(C(=O)NC(CC(N)=O)c2ccc(NCc3ccc(F)c(F)c3)c([N+](=O)[O-])c2)c1 (stereo not given) | 5.38 | 23.6
COc1ccc(C2=CC(c3c(C)nn(-c4ccccc4)c3Cl)n3nnnc3N2)cc1OC (stereo not given) | 40.8 | 78.9
O=C(O)/C=C/C(=O)Nc1ccc(-c2ccccc2)cc1 | 34.3 | > 100
CCOC(=O)c1cc(-c2csc(Nc3c(C)cc(C)cc3C)n2)on1 | 1.07 | 1.76
O=C(O)C1CC=CCC1C(=O)N1CCN(c2nc(-c3ccccc3Cl)c3cc(Br)ccc3n2)CC1 (stereo not given) | 46.4 | 78.5
CCCCC(=O)/C=C/n1c(=S)oc2ccccc21 | 28.2 | > 100
COc1cc2[nH]c(Cl)c([N+](=O)[O-])c2cc1OC | 99.6 | > 100
CN1C(=S)SC(N(O)C(=O)Nc2ccc(Cl)c(Cl)c2)C1(C)C (stereo not given) | 22.8 | 25.6
CCOC(=O)c1c(C)[nH]c(N=Nc2ccc(OC)cc2)c1C | 1.71 | 5.55
CCCCOC(=O)CCN1C(=O)/C(=C2\SC(=S)N(CCC(=O)OCCCC)C2=O)SC1=S | 2.98 | 6.96

SMILES | IC50 [µM] | IC90 [µM]
COc1ccc(/C=C2\CCC/C(=C\C=N\N(C)C)C2=O)cc1 | 8.19 | 16.2
Cc1ccccc1N1CCN(C(=O)c2ccc(Oc3ccc(C(F)(F)F)cn3)cc2)CC1 | 24.4 | 60.5
COc1cc(/C=N/n2c(-c3ccc4c(c3)NC(=O)CO4)csc2=Nc2cccc(C)c2)ccc1O | 34 | > 100
COC(=O)CSc1nnc(-c2sc3cc(OC)ccc3c2Cl)n1C | 9.08 | > 100
CCCCCC1CC(CC(=O)NC(=S)Nc2ccc([N+](=O)[O-])cc2)C(=O)O1 (stereo not given) | 92.9 | > 100
Cc1ccc(-c2noc(C3CCCN(C(=O)c4ccc(C(C)(C)C)cc4)C3)n2)o1 (stereo not given) | 48.2 | 55.2
CCOc1ccc2nc(NC(=O)C34CC5CC(CC(NC(C)=O)(C5)C3)C4)sc2c1 | 17.8 | 28.4
CN1CCN(c2cc(-c3ccccc3)nc3cc(-c4ccc(F)cc4)nn23)CC1 | 11.4 | 15.7
Cn1ccnc1C(O)c1cc(C(C)(C)C)c(O)c(C(C)(C)C)c1 (stereo not given) | – | > 100
Cc1cc(C)c(C(N)=O)c(SCC(=O)c2ccc(Cl)cc2)n1 | 35.3 | 63.1
CCOC(=O)c1sc2nc(C)nc(SC(C)C(=O)N(C)c3ccccc3)c2c1C (stereo not given) | 35.1 | 46.5
COc1ccc(/C=N/Nc2nncn2N)cc1Br | 10.8 | 16.3
CC(=O)c1sc(NC(=O)c2cc(=O)c3ccccc3o2)nc1C | 14.3 | > 100
CCOc1ccc(NC(=O)CSc2cn[nH]n2)cc1 | 57.1 | > 100
CCN1c2ccccc2N(C)C1(C)c1ccccc1 (stereo not given) | 6 | 6.79
C=CCOc1c(Br)cc(CNc2nccs2)cc1OC | 22.3 | 40.9
Cc1c(Cl)cccc1NC(=O)CN1CCC(C(O)(c2ccccc2)c2ccccc2)CC1 | 36.1 | > 100
Cc1nc(N)nc(N)c1CCCc1ccc(Cl)c(Cl)c1 | 78.2 | > 100
Cc1nn(-c2ccccc2)c(Cl)c1C(=O)Nc1nnc(C2CCCCC2)s1 | 17.3 | > 50
CCOC(=O)CSc1ccc(C(=O)Nc2ccc(OC)cc2)cn1 | < 0.2 | > 100
Cc1ccc(C(C)C)c(OCC(=O)OCc2c(C)noc2C)c1 | 2.86 | 3.29
Brc1ccc(-c2nc3ncccn3c2Nc2ccc3c(c2)OCCO3)o1 | 59.2 | 90.2
O=C(CN1CCCCC1)Nc1nnc(-c2ccc([N+](=O)[O-])cc2)s1 | 16.2 | 62.4
